System: 299254-011-R-J1-PDC complex spheroid viability
Assay: Anticancer human tumor 299254-011-R-J1-PDC patient-derived melanoma cell line growth inhibition [POLQ]
Conditions: for IC50: curve of first compound; for viability, T/C: stronger effect = lower value
Summary of the method: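 Growth inhibition in 3D: complex spheroids (tumor PDC, HUVEC, MSC) treated with POLQ inhibitor combinations; where Cmax unknown, highest tested concentration 10 microM, except SN-38 at 1 microM.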

[1] = second compound 0.0316 µM, first compound 0.0316 µM
[2] = second compound 0.0316 µM, first compound 0.1 µM
[3] = second compound 0.0316 µM, first compound 0.316 µM
[4] = second compound 0.0316 µM, first compound 1 µM
[5] = second compound 0.0316 µM, first compound 3.16 µM
[6] = second compound 0.0316 µM, first compound 10 µM
[7] = second compound 0.1 µM, first compound 0.0316 µM
[8] = second compound 0.1 µM, first compound 0.1 µM
[9] = second compound 0.1 µM, first compound 0.316 µM
[10] = second compound 0.1 µM, first compound 1 µM
[11] = second compound 0.1 µM, first compound 3.16 µM
[12] = second compound 0.1 µM, first compound 10 µM
[13] = second compound 0.316 µM, first compound 0.0316 µM
[14] = second compound 0.316 µM, first compound 0.1 µM
[15] = second compound 0.316 µM, first compound 0.316 µM
[16] = second compound 0.316 µM, first compound 1 µM
[17] = second compound 0.316 µM, first compound 3.16 µM
[18] = second compound 0.316 µM, first compound 10 µM
[19] = second compound 1 µM, first compound 0.0316 µM
[20] = second compound 1 µM, first compound 0.1 µM
[21] = second compound 1 µM, first compound 0.316 µM
[22] = second compound 1 µM, first compound 1 µM
[23] = second compound 1 µM, first compound 3.16 µM
[24] = second compound 1 µM, first compound 10 µM
[25] = second compound 3.16 µM, first compound 0.0316 µM
[26] = second compound 3.16 µM, first compound 0.1 µM
[27] = second compound 3.16 µM, first compound 0.316 µM
[28] = second compound 3.16 µM, first compound 1 µM
[29] = second compound 3.16 µM, first compound 3.16 µM
[30] = second compound 3.16 µM, first compound 10 µM
[31] = second compound 10 µM, first compound 0.0316 µM
[32] = second compound 10 µM, first compound 0.1 µM
[33] = second compound 10 µM, first compound 0.316 µM
[34] = second compound 10 µM, first compound 1 µM
[35] = second compound 10 µM, first compound 3.16 µM
[36] = second compound 10 µM, first compound 10 µM
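Also: spheroids exposed to drugs for one week before measurement.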
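For viability, T/C in this document: percent viability relative to DMSO vehicle control taken as 100%.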

C=CC(=O)N1CCN(c2nc(=O)n(-c3c(C)ccnc3C(C)C)c3nc(-c4c(O)cccc4F)c(F)cc23)C(C)C1 (stereo unspecified) + Cc1cccc(N(C)C(=O)C2C(O)CCN2c2nc(C)cc(C(F)(F)F)c2C#N)c1
IC50 (second compound 0.0316 µM): > 10 µM
IC50 (second compound 0.1 µM): > 10 µM
IC50 (second compound 0.316 µM): > 10 µM
IC50 (second compound 1 µM): > 10 µM
IC50 (second compound 3.16 µM): > 10 µM
IC50 (second compound 10 µM): > 10 µM
viability, T/C [1]: 88.6%
viability, T/C [2]: 75.1%
viability, T/C [3]: 72.8%
viability, T/C [4]: 67.8%
viability, T/C [5]: 63.4%
viability, T/C [6]: 68.9%
viability, T/C [7]: 85.2%
viability, T/C [8]: 78.1%
viability, T/C [9]: 64%
viability, T/C [10]: 79.3%
viability, T/C [11]: 69.3%
viability, T/C [12]: 58.7%
viability, T/C [13]: 99.5%
viability, T/C [14]: 81.8%
viability, T/C [15]: 88.3%
viability, T/C [16]: 77.2%
viability, T/C [17]: 74.3%
viability, T/C [18]: 64.4%
viability, T/C [19]: 88.4%
viability, T/C [20]: 73.8%
viability, T/C [21]: 63.5%
viability, T/C [22]: 64.5%
viability, T/C [23]: 82.2%
viability, T/C [24]: 67.9%
viability, T/C [25]: 84%
viability, T/C [26]: 84.8%
viability, T/C [27]: 66.4%
viability, T/C [28]: 70.1%
viability, T/C [29]: 66.1%
viability, T/C [30]: 72.8%
viability, T/C [31]: 90.5%
viability, T/C [32]: 72.7%
viability, T/C [33]: 56.4%
viability, T/C [34]: 74%
viability, T/C [35]: 74.9%
viability, T/C [36]: 75.2%

CC(C)n1c(=O)n(C)c2cnc3cc(F)c(-c4ccc(OCCCN5CCCCC5)nc4)cc3c21 + Cc1cccc(N(C)C(=O)C2C(O)CCN2c2nc(C)cc(C(F)(F)F)c2C#N)c1
IC50 (second compound 0.0316 µM): > 10 µM
IC50 (second compound 0.1 µM): > 10 µM
IC50 (second compound 0.316 µM): > 10 µM
IC50 (second compound 1 µM): > 10 µM
IC50 (second compound 3.16 µM): > 10 µM
IC50 (second compound 10 µM): > 10 µM
viability, T/C [1]: 98.6%
viability, T/C [2]: 102%
viability, T/C [3]: 84.6%
viability, T/C [4]: 90.1%
viability, T/C [5]: 102%
viability, T/C [6]: 68.2%
viability, T/C [7]: 96.2%
viability, T/C [8]: 92.9%
viability, T/C [9]: 90.4%
viability, T/C [10]: 90.1%
viability, T/C [11]: 97%
viability, T/C [12]: 81.2%
viability, T/C [13]: 93.9%
viability, T/C [14]: 98.8%
viability, T/C [15]: 89.2%
viability, T/C [16]: 88.9%
viability, T/C [17]: 94.1%
viability, T/C [18]: 76.3%
viability, T/C [19]: 92.5%
viability, T/C [20]: 96.5%
viability, T/C [21]: 89.1%
viability, T/C [22]: 98.8%
viability, T/C [23]: 93.5%
viability, T/C [24]: 67.6%
viability, T/C [25]: 113%
viability, T/C [26]: 119%
viability, T/C [27]: 90.3%
viability, T/C [28]: 95.3%
viability, T/C [29]: 90.4%
viability, T/C [30]: 64.1%
viability, T/C [31]: 87.9%
viability, T/C [32]: 97%
viability, T/C [33]: 106%
viability, T/C [34]: 107%
viability, T/C [35]: 79.3%
viability, T/C [36]: 71.1%

CC1COCCN1c1cc(C2(S(C)(=N)=O)CC2)nc(-c2ccnc3[nH]ccc23)n1 (stereo unspecified) + Cc1cccc(N(C)C(=O)C2C(O)CCN2c2nc(C)cc(C(F)(F)F)c2C#N)c1
IC50 (second compound 0.0316 µM): 6.32 µM
IC50 (second compound 0.1 µM): 5.32 µM
IC50 (second compound 0.316 µM): 7 µM
IC50 (second compound 1 µM): 6.25 µM
IC50 (second compound 3.16 µM): 4.22 µM
IC50 (second compound 10 µM): 2.67 µM
viability, T/C [1]: 105%
viability, T/C [2]: 99%
viability, T/C [3]: 87.2%
viability, T/C [4]: 79.6%
viability, T/C [5]: 66.4%
viability, T/C [6]: 39.4%
viability, T/C [7]: 108%
viability, T/C [8]: 103%
viability, T/C [9]: 91.1%
viability, T/C [10]: 80.1%
viability, T/C [11]: 61%
viability, T/C [12]: 36.7%
viability, T/C [13]: 99.1%
viability, T/C [14]: 97.4%
viability, T/C [15]: 91.6%
viability, T/C [16]: 96.6%
viability, T/C [17]: 66%
viability, T/C [18]: 42.8%
viability, T/C [19]: 93%
viability, T/C [20]: 92.5%
viability, T/C [21]: 104%
viability, T/C [22]: 94.3%
viability, T/C [23]: 70.9%
viability, T/C [24]: 35.6%
viability, T/C [25]: 90.4%
viability, T/C [26]: 92.7%
viability, T/C [27]: 100%
viability, T/C [28]: 92.3%
viability, T/C [29]: 54.4%
viability, T/C [30]: 36.8%
viability, T/C [31]: 93%
viability, T/C [32]: 92.7%
viability, T/C [33]: 93.8%
viability, T/C [34]: 63.7%
viability, T/C [35]: 52.7%
viability, T/C [36]: 37.9%
